In brackets after ≈: the same amount, converted by molar mass. One block for each compound: values may come before it. Bridge positions count the residues as written; N and C are the ends. Square brackets hold non-standard residues; d marks the D form. Peptide text beside a SMILES is read from it. d(aIle) = CC[C@H](C)[C@@H](N)C(=O)O; dNMeF = CN[C@H](Cc1ccccc1)C(=O)O
Legend:
MRSA ATCC 33591 = assay: microbe, parasite or virus in culture
Protocol: were grown in Mueller Hinton broth (Oxoid) in triplicate. All incubations were at 37°C. Dilutions were carried out in triplicate. 100 µl of autoclaved Mueller Hinton broth was added to wells 2-12 in a 96-well plate. 200 µl of the peptide was added to well one at a concentration of 256 µg/mL. 100µl of peptide in well one was taken up and pipetted into well two. The mixture was then mixed via pipetting before 100µl was taken up and pipetted into well three. This process was repeated up to well 11. Once […]
peptide present. Thus, the concentrations (in µg/mL) were: 256, 128, 64, 32, 16, 8, 4, 2, 1, 0.5, 0.25 and no peptide present. Each well was then inoculated with 100µl of bacteria that had been diluted to an […]
This was repeated three times. The 96-well plates were then incubated at 37°C for 24 hours. The MIC was determined to be the lowest concentration at which there was no growth visible. […]
was repeated at an altered initial concentration of 64 µg/ml. Therefore, the new concentrations for MIC […]
(§1) VIII. MIC testing (extended panel)
(§2) Bacterial cultures were grown overnight i n Mueller-Hinton Agar (MHA) plates and adjusted to a final concentration of 10 5 – 106 CFU/ml. 100 µl of inoculum in Meuller -Hinton broth (MHB) was mixed with equal volume of peptides (dissolved in MHB) at 2x their concentration in a 96 well plate. In parallel experiments, MIC values were determined in the media containing polysorbate 80 (0 .002%, v/v) to […]

MRSA 1: MRSA ATCC 700699 = assay: microbe, parasite or virus in culture; conditions: for MIC (with polysorbate 80): MRSA 1, MHB containing polysorbate 80 (0.002%, v/v), two independent duplicates
Protocol: as §1, §2
(§3) prevent non-specific adsorption of the peptides to plastic surfaces. The final peptides concentrations […]
(§4) Positive and negative controls contained 200 µl of inoculum without any peptide dissolved in broth, respectively. The 96 well plates were then incubated at 37 °C for 24 h.
(§5) All the experiments were performed in two independent duplicates and the MIC was determined as the […]
(§6) Minimum bactericidal concentration
(§7) The lowest concentration in which no visible colonies could be detected was taken as the MBC.
(§8) 80. Strain information: MRSA 1: MRSA ATCC 700699, MRSA 2: MRSA DR 42412 (sputum), MRSA
(§9) 3: MRSA DM21455 (eye). […] Staphylococcus aureus ATCC

[1] = test system: MRSA 3: MRSA DM21455 (eye); assay: microbe, parasite or virus in culture; conditions: for MIC (with polysorbate 80): MRSA 3, MHB containing polysorbate 80 (0.002%, v/v)
Protocol: as §1, §2, §3, §4, §5, §6, §7, §8, §9

[2] = test system: Staphylococcus aureus ATCC 29213; assay: microbe, parasite or virus in culture; conditions: for MIC (with polysorbate 80): S. aureus ATCC 29213, MHB containing polysorbate 80 (0.002%, v/v)
Protocol: as §1, §2, §3, §4, §5, §6, §7, §8, §9

[3] = test system: MRSA 2: MRSA DR 42412 (sputum); assay: microbe, parasite or virus in culture; conditions: for MIC (with polysorbate 80): MRSA 2, MHB containing polysorbate 80 (0.002%, v/v)
Protocol: as §1, §2, §3
(§10) Positive and negative controls contained 200 µl of inoculum without any peptide dissolved in broth, respectively. The 96 well plates were then incubated at 37 °C for 24 h. […]
as §8, §9

VRE 1: VRE ATCC 700802 = assay: organism not typed; conditions: for MIC (with polysorbate 80): VRE 1, MHB containing polysorbate 80 (0.002%, v/v), 37 °C, 24 h
Protocol: as §1, §2, §3, §10, §8, §9

VRE 2: VRE ATCC 29212 = assay: organism not typed; conditions: for MIC (with polysorbate 80): VRE 2, MHB containing polysorbate 80 (0.002%, v/v), 37 °C, 24 h
Protocol: as §1, §2, §3, §10, §8, §9

MIC (MRSA ATCC 33591; ATCC 33591, 24 h): 0.5 μg mL^–1
MIC (MRSA 1: MRSA ATCC 700699; ATCC 700699, 24 h): 1 μg mL^–1
MIC (without polysorbate 80) (MRSA 1: MRSA ATCC 700699; ATCC 700699, 24 h): 4 µg/mL (≈ 3.37 µM)
MIC (with polysorbate 80) (MRSA 1: MRSA ATCC 700699; 37 °C, 24 h): 1 µg/mL (≈ 0.842 µM)
MIC ([1]; 3: DM21455 (eye, 24 h)): 0.25 μg mL^–1
MIC (without polysorbate 80) ([1]; 3: DM21455 (eye, 24 h)): 4 µg/mL (≈ 3.37 µM)
MIC (with polysorbate 80) ([1]; 37 °C, 24 h): 0.25 µg/mL (≈ 0.211 µM)
MIC (without polysorbate 80) ([2]; ATCC 29213, 24 h): 2 µg/mL (≈ 1.68 µM)
MIC (with polysorbate 80) ([2]; 37 °C, 24 h): 0.25 µg/mL (≈ 0.211 µM)
MIC ([3]; 2: DR 42412 (sputum, 24 h)): 0.5 μg mL^–1
MIC (without polysorbate 80) ([3]; 2: DR 42412 (sputum, 24 h)): 2 µg/mL (≈ 1.68 µM)
MIC (with polysorbate 80) ([3]; 37 °C, 24 h): 0.5 µg/mL (≈ 0.421 µM)
MIC (VRE 1: VRE ATCC 700802; ATCC 700802, 24 h): 0.5 μg mL^–1
MIC (without polysorbate 80) (VRE 1: VRE ATCC 700802; ATCC 700802, 24 h): 4 µg/mL (≈ 3.37 µM)
MIC (with polysorbate 80) (VRE 1: VRE ATCC 700802): 0.5 µg/mL (≈ 0.421 µM)
MIC (VRE 2: VRE ATCC 29212; ATCC 29212, 24 h): 0.5 μg mL^–1
MIC (without polysorbate 80) (VRE 2: VRE ATCC 29212; ATCC 29212, 24 h): 4 µg/mL (≈ 3.37 µM)
MIC (with polysorbate 80) (VRE 2: VRE ATCC 29212): 0.5 µg/mL (≈ 0.421 µM)
SMILES: CC[C@H](C)[C@H](NC(=O)[C@@H](Cc1ccccc1)NC)C(=O)N[C@@H](CO)C(=O)N[C@H](CCC(N)=O)C(=O)N[C@@H](C(=O)N[C@H](C(=O)N[C@@H](CO)C(=O)N[C@H]1C(=O)N[C@@H](C)C(=O)N[C@@H](C(C)C)C(=O)N[C@@H]([C@@H](C)CC)C(=O)O[C@H]1C)[C@@H](C)CC)[C@@H](C)CC [Compound 11, Val10-teixobactin] (H-[dNMeF]IS[dQ][d(aIle)]IS[dT]AVI; ester 8-C)
times better antibacterial activity than Arg10-teixobactin (MRSA ATCC 33591; from MIC against MRSA ATCC 33591): 4 times
MBC (MRSA 1: MRSA ATCC 700699; MRSA 1 (MRSA ATCC 700699), plated on MHA, 37 °C, 24 h): 4 μg mL^–1
MBC ([1]; MRSA 3 (MRSA DM21455), plated on MHA, 37 °C, 24 h): 2 μg mL^–1
MBC ([2]; Staphylococcus aureus ATCC 29213, plated on MHA, 37 °C, 24 h): 1 μg mL^–1
MBC ([3]; MRSA 2 (MRSA DR 42412), plated on MHA, 37 °C, 24 h): 4 μg mL^–1

MIC (with polysorbate 80) (MRSA 1: MRSA ATCC 700699; 37 °C, 24 h): 0.5 µg/mL (≈ 0.309 µM)
MIC (with polysorbate 80) ([1]; 37 °C, 24 h): 0.5 µg/mL (≈ 0.309 µM)
MIC (with polysorbate 80) ([2]; 37 °C, 24 h): 0.25 µg/mL (≈ 0.154 µM)
MIC (with polysorbate 80) ([3]; 37 °C, 24 h): 0.5 µg/mL (≈ 0.309 µM)
MIC (with polysorbate 80) (VRE 1: VRE ATCC 700802): 0.5 µg/mL (≈ 0.309 µM)
MIC (with polysorbate 80) (VRE 2: VRE ATCC 29212): 0.5 µg/mL (≈ 0.309 µM)
SMILES: CCCCCCCCCC(=O)N[C@@H](Cc1c[nH]c2ccccc12)C(=O)N[C@H](CC(N)=O)C(=O)N[C@@H](CC(=O)O)C(=O)N[C@@H]1C(=O)NCC(=O)N[C@@H](CCCN)C(=O)N[C@@H](CC(=O)O)C(=O)N[C@H](C)C(=O)N[C@@H](CC(=O)O)C(=O)NCC(=O)N[C@H](CO)C(=O)N[C@@H]([C@H](C)CC(=O)O)C(=O)N[C@@H](CC(=O)c2ccccc2N)C(=O)O[C@@H]1C [Daptomycin, reference compound]

From PMC5855875, “Teixobactin analogues reveal enduracididine to be non-essential for highly potent antibacterial activity and lipid II binding” (Chemical Science, 2017)
